Organism: Rattus norvegicus
Assay: Open TG-GATES - Regimen: Single
Format: toxicity, organism-based, Sprague-Dawley
Design: regimen Single, gender Male, age 6 weeks
Settings: in vivo, po, 0 mg/kg, route gavage, dose level Control; for APTT / Bas / Eos / Fbg / Hb / Ht / Lym / MCH / MCHC / MCV / Mono / Neu / PT / Plat / RBC / Ret / WBC: tissue Blood; for KIDNEY_L / KIDNEY_R / KIDNEY_TOTAL: tissue Kidney; for LIVER: tissue Liver; for A/G / ALP / ALT / AST / BUN / CRE / Ca / Cl / DBIL / GLC / IP / K / LDH / Na / PL / RALB / TBIL / TC / TG / TP / gamma-GTP: tissue Plasma

Brc1ccccc1 [BROMOBENZENE] showed a TERMINAL_BW (3 h) of 190.9 g, an APTT (3 h) of 15.7 s and a Bas (3 h) of 0.2%. It also gave an Eos (3 h) of 0.8%, a Fbg (3 h) of 247.4 mg/dL and a Hb (3 h) of 13.1 g/dL. It also gave a Ht (3 h) of 39.4%, a Lym (3 h) of 72.8% and an MCH (3 h) of 21.2 pg. It also gave an MCHC (3 h) of 33.2%, an MCV (3 h) of 63.8 fL and a Mono (3 h) of 4.2%. It also gave a Neu (3 h) of 21.6%, a PT (3 h) of 12.4 s and a Plat (3 h) of 117.7 x10_4/uL. The RBC (3 h) was 618.4 x10_4/ul, the Ret (3 h) was 9.8% and the WBC (3 h) was 108.2 x10_2/uL. The KIDNEY_L (3 h) was 0.9 g, the KIDNEY_R (3 h) was 0.8 g and the KIDNEY_TOTAL (3 h) was 1.7 g. It also gave an LIVER (3 h) of 8.1 g, an A/G (3 h) of 0.9 and an ALP (3 h) of 1539.4 IU/L. It also gave an ALT (3 h) of 46.2 IU/L, an AST (3 h) of 83.2 IU/L and a BUN (3 h) of 10.2 mg/dL. It also gave a CRE (3 h) of 0.2 mg/dL, a Ca (3 h) of 11.2 mg/dL and a Cl (3 h) of 106.2 meq/L. The DBIL (3 h) was 0.022 mg/dL, the GLC (3 h) was 186.4 mg/dL and the IP (3 h) was 9.4 mg/dL. For the same compound, the K (3 h) was 3.8 meq/L, the LDH (3 h) was 84.2 IU/L and the Na (3 h) was 141.6 meq/L. It also gave a PL (3 h) of 159.2 mg/dL, an RALB (3 h) of 2.6 g/dL and a TBIL (3 h) of 0.058 mg/dL. It also gave a TC (3 h) of 83.6 mg/dL, a TG (3 h) of 88.4 mg/dL and a TP (3 h) of 5.5 g/dL. For the same compound, the gamma-GTP (3 h) was 2 IU/L, the TERMINAL_BW (6 h) was 191.8 g and the APTT (6 h) was 15.7 s. For the same compound, the Bas (6 h) was 0%, the Eos (6 h) was 1% and the Fbg (6 h) was 276.2 mg/dL. It also gave a Hb (6 h) of 13 g/dL, a Ht (6 h) of 39.1% and a Lym (6 h) of 75.8%. It also gave an MCH (6 h) of 21.4 pg, an MCHC (6 h) of 33.3% and an MCV (6 h) of 64.3 fL. For the same compound, the Mono (6 h) was 3.8%, the Neu (6 h) was 19.2% and the PT (6 h) was 12.4 s. It also gave a Plat (6 h) of 109.8 x10_4/uL, an RBC (6 h) of 608.2 x10_4/ul and a Ret (6 h) of 9.3%. It also gave a WBC (6 h) of 92.3 x10_2/uL, a KIDNEY_L (6 h) of 0.8 g and a KIDNEY_R (6 h) of 0.8 g. It also gave a KIDNEY_TOTAL (6 h) of 1.6 g, an LIVER (6 h) of 7.6 g and an A/G (6 h) of 0.9. For the same compound, the ALP (6 h) was 1707 IU/L, the ALT (6 h) was 40.8 IU/L and the AST (6 h) was 76.6 IU/L. For the same compound, the BUN (6 h) was 9.2 mg/dL, the CRE (6 h) was 0.2 mg/dL and the Ca (6 h) was 11 mg/dL. The Cl (6 h) was 107.4 meq/L, the DBIL (6 h) was 0.01 mg/dL and the GLC (6 h) was 184.2 mg/dL. For the same compound, the IP (6 h) was 10 mg/dL, the K (6 h) was 4 meq/L and the LDH (6 h) was 69.6 IU/L. It also gave a Na (6 h) of 141.4 meq/L, a PL (6 h) of 149.2 mg/dL and an RALB (6 h) of 2.6 g/dL. It also gave a TBIL (6 h) of 0.054 mg/dL, a TC (6 h) of 83.2 mg/dL and a TG (6 h) of 37.8 mg/dL. The TP (6 h) was 5.5 g/dL, the gamma-GTP (6 h) was 1.2 IU/L and the TERMINAL_BW (9 h) was 191.1 g. It also gave an APTT (9 h) of 15.4 s, a Bas (9 h) of 0% and an Eos (9 h) of 1%. It also gave a Fbg (9 h) of 258.4 mg/dL, a Hb (9 h) of 12.9 g/dL and a Ht (9 h) of 38.8%. The Lym (9 h) was 74.8%, the MCH (9 h) was 21.5 pg and the MCHC (9 h) was 33.4%. The MCV (9 h) was 64.4 fL, the Mono (9 h) was 3% and the Neu (9 h) was 21.2%. It also gave a PT (9 h) of 12.3 s, a Plat (9 h) of 120.5 x10_4/uL and an RBC (9 h) of 603 x10_4/ul. For the same compound, the Ret (9 h) was 9.6%, the WBC (9 h) was 75.5 x10_2/uL and the KIDNEY_L (9 h) was 0.8 g. For the same compound, the KIDNEY_R (9 h) was 0.8 g, the KIDNEY_TOTAL (9 h) was 1.6 g and the LIVER (9 h) was 7.4 g. It also gave an A/G (9 h) of 0.9, an ALP (9 h) of 1515.4 IU/L and an ALT (9 h) of 36.2 IU/L. The AST (9 h) was 70.2 IU/L, the BUN (9 h) was 11.4 mg/dL and the CRE (9 h) was 0.2 mg/dL. For the same compound, the Ca (9 h) was 10.8 mg/dL, the Cl (9 h) was 105.8 meq/L and the DBIL (9 h) was 0.006 mg/dL. For the same compound, the GLC (9 h) was 193.4 mg/dL, the IP (9 h) was 11.8 mg/dL and the K (9 h) was 3.6 meq/L. For the same compound, the LDH (9 h) was 81.2 IU/L, the Na (9 h) was 143.2 meq/L and the PL (9 h) was 146.8 mg/dL. The RALB (9 h) was 2.6 g/dL, the TBIL (9 h) was 0.052 mg/dL and the TC (9 h) was 84.2 mg/dL. It also gave a TG (9 h) of 39.6 mg/dL, a TP (9 h) of 5.6 g/dL and a gamma-GTP (9 h) of 1.4 IU/L. It also gave a TERMINAL_BW (24 h) of 196.6 g, an APTT (24 h) of 15.4 s and a Bas (24 h) of 0%. It also gave an Eos (24 h) of 1%, a Fbg (24 h) of 270.2 mg/dL and a Hb (24 h) of 12.6 g/dL. For the same compound, the Ht (24 h) was 37.4%, the Lym (24 h) was 74.6% and the MCH (24 h) was 21.1 pg. The MCHC (24 h) was 33.8%, the MCV (24 h) was 62.6 fL and the Mono (24 h) was 3.4%. It also gave a Neu (24 h) of 19.8%, a PT (24 h) of 12.3 s and a Plat (24 h) of 114.7 x10_4/uL. The RBC (24 h) was 598.2 x10_4/ul, the Ret (24 h) was 8.1% and the WBC (24 h) was 81.7 x10_2/uL. It also gave a KIDNEY_L (24 h) of 0.8 g, a KIDNEY_R (24 h) of 0.8 g and a KIDNEY_TOTAL (24 h) of 1.7 g. The LIVER (24 h) was 8.7 g, the A/G (24 h) was 0.9 and the ALP (24 h) was 1600.6 IU/L. The ALT (24 h) was 50.8 IU/L, the AST (24 h) was 79.6 IU/L and the BUN (24 h) was 14.2 mg/dL. For the same compound, the CRE (24 h) was 0.2 mg/dL, the Ca (24 h) was 10.5 mg/dL and the Cl (24 h) was 105.2 meq/L. The DBIL (24 h) was 0.004 mg/dL, the GLC (24 h) was 187.4 mg/dL and the IP (24 h) was 8 mg/dL. For the same compound, the K (24 h) was 4.2 meq/L, the LDH (24 h) was 114.4 IU/L and the Na (24 h) was 141.4 meq/L. It also gave a PL (24 h) of 136.8 mg/dL, an RALB (24 h) of 2.6 g/dL and a TBIL (24 h) of 0.04 mg/dL. It also gave a TC (24 h) of 76.8 mg/dL, a TG (24 h) of 55.4 mg/dL and a TP (24 h) of 5.5 g/dL. It also gave a gamma-GTP (24 h) of 1.4 IU/L.

— ChEMBL document CHEMBL3885861, “Open TG-GATES”
